Consider four molecules from ChEMBL document CHEMBL1221180, “Metabolic installation of thiols into sialic acid modulates adhesion and stem cell biology” (Nat Chem Biol, 2006).

The source made the active and inactive calls. The calls are words filed in the database; no cut-off is given here.

In data set [1] the test system is Jurkat. Put plainly: Increase in cell surface thiol level in human Jurkat cells at 160 uM after 64 hrs by avidin-FITC staining-based FACS analysis relative to untreated control. Type of data set: functional. In general terms: In flow cytometry, cells or beads pass a laser one at a time.
The test system of data set [2] is Jurkat. Put plainly: Induction of human Jurkat cell adhesion assessed as spontaneous clustering of cells at 50 uM after 2 days by inverted microscopy. Type of data set: functional, cell-based.
The subject of data set [3] is Jurkat. Put plainly: Increase in cell surface thiol level in human Jurkat cells at 320 uM after 64 hrs by avidin-FITC staining-based FACS analysis relative to untreated control. The data set is classed as functional.
For data set [4], the system named is Lvec. In words: Increase in beta-casein expression in human LVEC cultured on gold-coated cover slips at 10 uM after 13 days by oregon green 488 phalloidin and DAPI staining. Type of data set: functional, cell-based.
Data set [5] concerns Lvec. In words: Mild increase in beta-casein expression in human LVEC cultured on glass surface at 10 uM after 13 days by oregon green 488 phalloidin and DAPI staining. Type of data set: functional, cell-based.
The test system of data set [6] is Jurkat. Put plainly: Increase in N-thioglycolylneuraminic acid level in human Jurkat cells at 10 uM after 2 hrs by avidin-FITC staining-based FACS analysis in presence of disulfide reducing agent TCEP relative to untreated control. Type of data set: functional.
Data set [7] has as its system Jurkat. Put plainly: Cytotoxicity against human Jurkat cells at 100 uM after 48 hrs. Type of data set: cell-based.
The test system of data set [8] is Jurkat. In words: Increase in cell surface thiol level in human Jurkat cells at 10 uM after 64 hrs by avidin-FITC staining-based FACS analysis relative to untreated control. Type of data set: functional.
Data set [9] deals with Lvec. In words: Translocation of beta-casein into nucleus of human LVEC cultured on gold-coated cover slips at 10 uM after 13 days by oregon green 488 phalloidin and DAPI staining. Type of data set: functional, cell-based.
The test system of data set [10] is Lvec. In words: Increase in N-thioglycolylneuraminic acid level in human LVEC at 10 uM after 3 days by avidin-FITC staining-based FACS analysis. Type of data set: functional, cell-based.
Data set [11] deals with Jurkat. Put plainly: Increase in cell surface thiol level in human Jurkat cells at 40 uM after 2 days by avidin-FITC staining-based FACS analysis relative to untreated control. The data set is classed as functional.
The test system of data set [12] is Jurkat. In words: Induction of human Jurkat cell adhesion assessed as covalent cellular attachment to maleimide functionalized BSA-coated superaldehyde glass surface at 100 uM after 48 hrs by fluorescence microscopy. The data set is classed as functional, cell-based.
In data set [13] the test system is Lvec. Put plainly: Increase in N-thioglycolylneuraminic acid level in human LVEC after 7 days by avidin-FITC staining-based FACS analysis relative to untreated control. The data set is classed as functional, cell-based.
In data set [14] the test system is Jurkat. Put plainly: Induction of human Jurkat cell adhesion assessed as covalent cellular attachment to BSA-coated superaldehyde glass surface at 100 uM after 48 hrs by fluorescence microscopy in absence of maleimide coating. Type of data set: functional, cell-based.
Data set [15] in a line: Induction of human LVEC cell differentiation into neural cell lineage cultured on gold-coated cover slips assessed as effect on cytoskeleton distribution at 10 uM measured on day 9 post treatment by DAPI staining-based confocal microscopy. Type of data set: functional.
Data set [16] deals with Lvec. Put plainly: Effect on human LVEC cell morphology cultured on gold-coated cover slips at 10 uM measured on day 9 post treatment by DAPI staining-based confocal microscopy. Type of data set: functional.
A short description of data set [17]: Decrease in human LVEC cell proliferation at 10 uM for 3 days followed by second treatment of 50 uM on day 4 measured on day 9 by nestin immunostaining. The data set is classed as cell-based. The following applies: 72 h.
For data set [18], the system named is Lvec. Put plainly: Increase in N-thioglycolylneuraminic acid level in human LVEC at 10 uM after 7 days by avidin-FITC staining-based FACS analysis relative to untreated control. The data set is classed as functional.
Data set [19] deals with Jurkat. In words: Increase in N-thioglycolylneuraminic acid level in human Jurkat cells at 10 uM after 2 hrs by avidin-FITC staining-based FACS analysis in absence of disulfide reducing agent TCEP relative to untreated control. Type of data set: functional.
Data set [20] relates to Jurkat. Put plainly: Modulation of cell surface thiol level in human Jurkat cells at 100 uM after 64 hrs by avidin-FITC staining-based FACS analysis. The data set is classed as functional.

Turning to `CC(=O)OC[C@H]1O[C@H](OC(C)=O)[C@@H](NC(=O)CSC(C)=O)[C@@H](OC(C)=O)[C@@H]1OC(C)=O`, the “fold change (FC)” value was 40 in data set [1]; 34 in data set [3]; 120 in [6]; 19 in data set [8]; 14 in [11]; 15 in [18]. For the same molecule, the “fold change (FC)” value in [19] was found to be 13. Also, the outcome in data set [2], in [4], in data set [5], in data set [9], in data set [10] and in data set [12] was Active. In addition, the outcome in data set [15] and in data set [16] was Active. The Activity entry is “Non-toxic” in [7], “Dose-dependent effect” in data set [13] and “Toxic” in data set [17]. Moreover, the outcome in [14] was inactive.
On to `CC(=O)OCC(=O)N[C@@H]1[C@@H](OC(C)=O)O[C@H](COC(C)=O)[C@@H](OC(C)=O)[C@@H]1OC(C)=O`, for which the outcome in data set [2] and in data set [12] was Active. The outcome in data set [14], in [16] and in data set [20] was inactive.
For the molecule `CC(=O)N[C@@H]1C(OC(C)=O)O[C@H](COC(C)=O)[C@@H](OC(C)=O)[C@@H]1OC(C)=O` (stereo partly specified), the “fold change (FC)” value in data set [3] is recorded as 34.
For the molecule `CC(=O)CCC(=O)N[C@@H]1C(OC(C)=O)O[C@H](COC(C)=O)[C@@H](OC(C)=O)[C@@H]1OC(C)=O` (stereo partly specified), in [3], the “fold change (FC)” value is recorded as 34.
